{"source": "patent US11597738B2", "about": "(Mindset Pharma Inc., priority 2020, dated 2023)", "key": {"[1]": {"assay": "In vivo pharmacokinetics in mice", "conditions": "male C57BL/6 mice", "method": "(§1) Male C57BL/6 mice (25-30 g) and male Sprague-Dawley rats (250-325 g) from Charles River Labs were acclimatized for a minimum of 5 days prior to dosing. Body weights were recorded on the day of dosing.\n(§2) Animals dosed p.o. were deprived of food overnight and fed ˜2 h following dosing.\n(§3) Formulations were administered intravenously (i.v.) via the tail vein or orally (p.o.) by gavage with disposable feeding needles.\n(§4) Serial blood samples were collected via tail snip. Terminal blood samples were collected under isoflurane anesthesia by cardiac puncture.\n(§5) All blood samples were transferred into K2EDTA tubes on wet ice and centrifuged within 5 min (3200×g for 5 min at 4° C.) to obtain plasma. Plasma was stored at −80° C. until analysis.\n(§6) Mouse or Rat Plasma, as Applicable.\n(§7) AB Sciex QTRAP 4000 or 6500 MS/MS system equipped with an LC system with a binary pump, a solvent degasser, a thermostatted column compartment and a multiplate autosampler. i. Analysis software: Phoenix® WinNonlin® 8.2 (Pharsight, Certara, Mountainview, Calif.) ii. Analysis methods: non-compartmental analysis, linear up/log down trapezoidal rule iii. PK parameters: C0, t1/2, AUC0-tlast. AUC0-∞, CL, Vss, MRT, tmax(po), Cmax(po), F, as appropriate"}, "[2]": {"system": "head-twitch response (HTR) in male C57BL6 mice", "assay": "Mouse head twitch (HTR)", "format": "in vivo, C57BL/6J mice", "conditions": "0.3-10 mg/kg SC, measured over 1 h", "method": "Data is expressed as mean+SEM. The induction of head twitches elicited by 5-HT2A receptor agonists is believed to represent a behavioural proxy of their psychedelic effects.\nThe effect of different doses of exemplary compounds of Formula I were evaluated on head-twitch response (HTR) as a behavior-based model of psychedelic activity.\nMale, C57BL/6J mice (body weight range 20-30 g) were dosed with the appropriate dose of test article, and following a 1-minute pre-treatment time, placed in individual observation chambers. Animals were visually assessed for the incidence head twitches continuously over a 1 hr period. Head twitches were defined as a rapid jerk of the head which was not elicited by an external tactile stimulus (Corne and Pickering, Psychopharmacologia, 1967, 11(1): 65-78). Each head twitch was individually counted by a trained observer, and the data expressed as the mean+SEM of 6-10 mice per group. Mice were used in a single experiment only."}, "[3]": {"assay": "In vivo pharmacokinetics in rats", "conditions": "male Sprague-Dawley rats", "method": "as §1, §2, §3, §4, §5, §6, §7"}}}
{"smiles": "[2H]C([2H])([2H])N(C([2H])([2H])[2H])C([2H])([2H])C([2H])([2H])c1c[nH]c2cccc(O)c12", "note": "[Compound I-45, 3-(2-(bis(methyl-d3)amino)ethyl-1,1,2,2-d4)-1H-indol-4-ol]", "values": [{"measurement": "AUC0-inf/Dose", "setting": "[1]; i.v., 1 mg/kg", "value": "181 ± 30.8", "unit": "kg·ng·h/mL/mg"}, {"measurement": "AUC0-inf/Dose", "setting": "[1]; p.o., 10 mg/kg", "value": "79.5 ± 12.1", "unit": "kg·ng·h/mL/mg"}, {"measurement": "Cmax/Dose", "setting": "[1]; p.o., 10 mg/kg", "value": "70.4 ± 12.8", "unit": "kg·ng/mL/mg"}, {"measurement": "head twitch frequency compared to vehicle control", "setting": "[2]", "value": "dose dependent increase in head twitch frequency"}, {"measurement": "AUC0-inf/Dose", "setting": "[3]; i.v., 0.3 mg/kg", "value": "181 ± 30.8", "unit": "kg·ng·h/mL/mg"}, {"measurement": "AUC0-inf/Dose", "setting": "[3]; p.o.", "value": "181 ± 14.6", "unit": "kg·ng·h/mL/mg"}, {"measurement": "Cmax/Dose", "setting": "[3]; p.o., 3.0 mg/kg (title; dose row prints 10)", "value": "79.2 ± 24.4", "unit": "kg·ng/mL/mg"}, {"measurement": "AUC0-inf/Dose", "setting": "[3]; s.c., 0.3 mg/kg", "value": "120 ± 29.0", "unit": "kg·ng·h/mL/mg"}, {"measurement": "Cmax/Dose", "setting": "[3]; s.c., 0.3 mg/kg", "value": "101 ± 40.7", "unit": "kg·ng/mL/mg"}, {"measurement": "AUC(0-inf)", "setting": "[3]; rat, plasma, iv, 0.3 mg/kg", "value": "117 ± 11.5", "unit": "ng·h/mL"}, {"measurement": "C0", "setting": "[3]; rat, plasma, iv, 0.3 mg/kg", "value": "76.5 ± 7.49", "unit": "ng/mL"}]}
